Like-named read-outs stand apart in the source and are kept apart here.
Experiments:
[1] = test system: Colo320; parameters: method as in doi:10.1039/D0NJ01070G; conditions: 72 h of exposure; ref [77]; cited from earlier work
[2] = test system: MRC-5; parameters: method as in doi:10.1039/D0NJ01070G; conditions: 72 h of exposure; ref [77]; cited from earlier work
[3] = test system: Colo205; parameters: method as in doi:10.1039/D0NJ01070G; conditions: 72 h of exposure; ref [77]; cited from earlier work
[4] = test system: Colo320; test: MTT cytotoxicity assay, Colo320; format: cell-based; conditions: Homo sapiens, COLO 320, 72 h of exposure
Experimental: (§1) The in vitro cytotoxicity of the TSCs HL^1–HL^3, copper(II) complexes Cu(HL^1)Cl2, [Cu(L^2)Cl], and Cu(HL^3)Cl2, and oxidized TSCs HL^1a′, HL^1a″, and HL^2c′·CH3COOH was tested in the doxorubicin-sensitive Colo205 and the multidrug-resistant Colo320 human colonic adenocarcinoma cell lines as well as in normal human embryonal lung fibroblast cells (MRC-5) by the colorimetric MTT assay. […]
(§2) 2.5. In vitro cell studies
(§3) 2.5.1. Cell lines and culture conditions
(§4) All cell culture reagents were obtained from Sigma-Aldrich and plastic ware from Sarstedt
(§5) (Germany). Doxorubicin-sensitive human colonic Colo 205 and multidrug resistant
(§6) Colo 320/MDR-LRP adenocarcinoma cell lines were purchased from LGC Promochem,
(§7) Teddington, UK. The cells were cultured in Roswell Park Memorial Institute (RPMI) 1640
(§8) medium supplemented with 10% heat-inactivated fetal bovine serum, 2 mM L-glutamine, 1 mM
(§9) Na-pyruvate and 100 mM Hepes. The cell lines were incubated at 37°C, in a 5% CO2, 95% air
(§10) MRC-5 human embryonal lung fibroblast cell line (ATCC CCL-171) was purchased from LGC
(§11) Promochem, Teddington, UK. The cell line was cultured in Eagle’s Minimal Essential Medi um
(§12) (EMEM, containing 4.5 g/L glucose) supplemented with a non-essential amino acid mixture, a
(§13) selection of vitamins and 10% heat-inactivated fetal bovine serum. The cells were incubated at
(§14) 37°C, in a 5% CO2, 95% air atmosphere. All cell lines were detached with Trypsin-Versene
(§15) (EDTA) solution for 5 min at 37 °C.
(§16) The tested compounds were dissolved in DMSO using 10 mM concentration. Then stock solutions
(§17) were diluted in complete culture medium in 96-well microtiter plates, and two-fold serial dilutions
(§18) of compounds were prepared in 100 µL of RPMI 1640, horizontally. The semi-adherent colonic
(§19) adenocarcinoma cells were treated with Trypsin -Versene (EDTA) solution. They were adjusted to
(§20) a density of 1×10^4 cells in 100 µL of RPMI 1640 medium, and were added to each well, with the
(§21) exception of the medium control wells. The final volume of the wells containing compounds and
(§22) cells was 200 µL. The culture were incubated at 37 °C for 72 h; at the end of the incubation period,
(§23) 20 µL of MTT solution (from a stock solution of 5 mg/mL) were added to each well. After
(§24) incubation at 37 °C for 4 h, 100 µL of SDS solution (10% in 0.01 M HCI) were added to each well
(§25) and the plates were further incubated at 37 °C overnight. The cell growth was determined using
(§26) both methods by measuring the optical density (OD) at 450 nm (ref. 620 nm) with a Multiscan EX
(§27) ELISA reader. Inhibition of the cell growth (expressed as IC 50: inhibitory concentration that
(§28) reduces by 50% the growth of the cells exposed to the tested compounds) was determined from
(§29) the sigmoid curve where 100 – ((ODsample ‒ ODmedium control)/(ODcell control ‒ ODmedium control)) × 100
(§30) values were plotted against the logarithm of compound concentrations. […]
(§31) 0.76 tyrosyl radical/polypeptide. Samples containing 20 µM mR2 in 50 mM HEPES buffer, pH
(§32) 7.50/100 mM NaCl, and 20 µM respective compound in 1% (v/v) DMSO/H2O, and 2 mM

[5] = test system: Colo205; test: MTT cytotoxicity assay, Colo205; format: cell-based; conditions: Homo sapiens, COLO 205, 72 h of exposure
Experimental: as §1, §2, §3, §4, §5, §6, §7, §8, §9, §10, §11, §12, §13, §14, §15, §16, §17, §18, §19, §20, §21, §22, §23, §24, §25, §26, §27, §28, §29, §30, §31, §32

[6] = test system: MRC-5; test: MTT cytotoxicity assay, MRC-5; format: cell-based; conditions: Homo sapiens, MRC5, 72 h of exposure
Experimental: as §2, §3
All cell culture reagents were obtained from Sigma-Aldrich and plastic ware from Sarstedt […]
as §10, §11, §12, §13, §14, §15, §16, §17, §18, §19, §20, §21, §22, §23, §24, §25, §26, §27, §28, §29, §30

[7] = molecular target: T1, mouse R2 RNR protein (Mus musculus, UniProt P11157); test: Tyrosyl radical reduction in mouse R2 RNR protein (EPR); format: biochemical
T1 construct: made in house
T1 sequence (P11157 1-390): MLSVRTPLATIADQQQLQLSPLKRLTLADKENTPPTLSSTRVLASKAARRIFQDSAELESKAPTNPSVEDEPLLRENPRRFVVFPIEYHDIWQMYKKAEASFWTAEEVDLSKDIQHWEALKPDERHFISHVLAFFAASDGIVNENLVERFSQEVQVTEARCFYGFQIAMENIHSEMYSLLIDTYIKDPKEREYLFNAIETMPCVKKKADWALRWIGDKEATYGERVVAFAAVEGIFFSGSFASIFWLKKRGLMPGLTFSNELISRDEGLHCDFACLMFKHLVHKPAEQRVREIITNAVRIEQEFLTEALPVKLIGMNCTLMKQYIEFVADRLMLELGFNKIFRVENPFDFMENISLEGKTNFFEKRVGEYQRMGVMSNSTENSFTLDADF
Experimental: The time-dependent tyrosyl radical reduction in mR2 RNR by equimolar concentrations of TSCs and their respective copper(II) complexes, under reducing conditions, is shown in Figure 15. […] The favorable impact of the copper(II) coordination on the HL^2 inhibitory activity is quite obvious, when the ability to quench the tyrosyl radical by HL^2 is compared to that of 2′.
The samples contained 20 μM mR2 in 50 mM HEPES buffer, pH 7.60/100 mM KCl, 20 μM compound in 1% (v/v) DMSO/H2O, and 2 mM DTT. […]
2.6. Tyrosyl radical reduction in mouse R2 RNR protein
The tyrosyl radical reduction in mR2 protein by HL1, HL2, HL3, Cu(HL1)Cl2, [Cu(L2)Cl],
Cu(HL3)Cl2, HL1a’, HL1a’’, and HL2c´·CH3COOH was measured by EPR spectroscopy at 30 K,
on a Bruker Elexsys II E540 EPR spectrometer with an Oxford Instruments ER 4112HV helium
cryostat, as described previously.12,13 mR2 protein was expressed, purified, and iron -reconstituted
as described previously, 14 and passed through a 5 mL HiTrap desalting column (GE Healthcare)
as §31, §32
dithiothreitol (DTT) were incubated for indicated times and quickly frozen in cold isopentane. The
same samples were used for repeated incubations at room temperature. […]
Furthermore, the intrinsic reaction coordinate (IRC) analysis was
performed to authenticate that the transition state pertains to the desired reaction coordinate. The
IRC calculations were done at the B3LYP/6-311++G(d,p) level of theory. Molecular orbitals were
drawn using Molekel software.17
3. Schemes for assignment of resonances in HL1 – HL3 and their isomers
Scheme S1. The atom numbering for the assignment of resonances in HL1 – HL3.
(1 picture or pasted object on this page, not shown here)

[8] = cited from earlier work
[9] = test system: SW480, MES-SA, MES-SA/Dx5, HL60, 41M, SK-BR-3; parameters: method as in PMID 32336116, PMID 22189939, PMID 31250199; conditions: several human cancer cells; ref [36],[58],[80]; read-out: IC50 values reported; cited from earlier work

SMILES | IC50 [1] [µM] | IC50 [3] [µM] | IC50 [4] [µM] | IC50 [5] [µM] | IC50 [6] [µM] | IC50 [9] [µM] | also measured
[Cl][Cu][Cl] [CuCl2, copper(II) chloride] | 20 | 19.7 | – | – | – | – | IC50 [2]: 24.5 µM
COc1cccc2c1C(=O)c1c(O)c3c(c(O)c1C2=O)C[C@@](O)(C(=O)CO)C[C@@H]3O[C@H]1C[C@H](N)[C@H](O)[C@H](C)O1 [doxorubicin] | 3.12 | 3.28 | – | – | – | – | –
CC1=CC(=Nc2nnc(-c3ccccn3)s2)C=C(C)C1=O [HL^1a″] | – | – | > 25 | > 25 | > 25 | – | effect on the tyrosyl radical content in the presence of DTT ([7]; 20 μM compound, 2 mM DTT): cause an increase in the radical content; effect on the tyrosyl radical in the absence of DTT ([7]; 20 μM compound, no DTT): do not have an effect
CC(=NNc1nc2cc(C)c(O)c(C)c2s1)c1ccccn1 [HL^2c′·CH3COOH] | – | – | 0.188 ± 0.041 | 2.73 ± 0.059 | 2.15 ± 0.1 | – | tyrosyl radical reduction (comparison in words) ([7]; 20 μM compound, 2 mM DTT): as potent as HL^3
NC(=S)N/N=C/c1ncccc1N [triapine, 3-aminopyridine-2-carboxaldehyde TSC, reference compound] | – | – | 4.21 ± 0.46 | 3.34 ± 0.12 | – | 0.4 to 2.6 | log D7.4 ([8]; pH 7.4): +0.85; mR2 inhibition potency order ([7]; equimolar 20 μM compound and mR2, 2 mM DTT): HL^1 ≈ triapine > HL^3 > HL^2
NC(=S)NN=Cc1ccccn1 [FTSC, 2-formylpyridine TSC] | – | – | – | – | – | 1.9 to 10.6 | log D7.4 ([8]; ref [67]): +0.73
